Source: patent publication US6358885B1, “Substituted phenylheterocyclic herbicides” (Mississippi State University, priority 1992, dated 2002)

What was measured:
[1] = tested on: barnyardgrass; experiment: Test B preemergence/postemergence greenhouse plant response rating 0 to 10; format: in vivo, Echinochloa crus-galli; details: 0 to 10 scale
Procedure, shortened: (§1)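 Test chemicals, dissolved in a non-phytotoxic solvent, were applied to soil at planting and, at the same time, over foliage of seedlings at the one to four leaf stage.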

[2] = tested on: giant foxtail; experiment: as above; format: in vivo, Setaria faberii; details: 0 to 10 scale
Procedure, shortened: as §1

[3] = tested on: lambsquarters; experiment: as above; format: in vivo, Chenopodium album; details: 0 to 10 scale
Procedure, shortened: as §1

[4] = tested on: sugar beet; experiment: as above; format: in vivo, Beta vulgaris; details: 0 to 10 scale
Procedure, shortened: as §1

[5] = tested on: velvetleaf; experiment: as above; format: in vivo, Abutilon theophrasti; details: 0 to 10 scale
Procedure, shortened: as §1

[6] = tested on: cotton; experiment: Test C preemergence/postemergence greenhouse plant response rating 0 to 100; format: in vivo, Gossypium hirsutum; details: POSTEMERGENCE; for Plant response rating, Cotton: 0 to 100 scale
Procedure, shortened: (§2)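 Compounds in non-phytotoxic solvent went onto sandy loam before emergence (seeded one day earlier) or onto plants at the one-to-four leaf stage. Duck salad was treated via flood water (~2.5 cm, maintained) over silt loam.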

[7] = tested on: crabgrass; experiment: as above; format: in vivo, Digitaria sanguinalis; details: POSTEMERGENCE; for Plant response rating, Crabgrass: 0 to 100 scale
Procedure, shortened: as §2

[8] = tested on: pigweed; experiment: as above; format: in vivo, Amaranthusretroflexus; details: POSTEMERGENCE; for Plant response rating Pigweed: 0 to 100 scale
Procedure, shortened: as §2

[9] = tested on: sorghum; experiment: as above; format: in vivo, Sorghum bicolor; details: POSTEMERGENCE; for Plant response rating, Sorghum: 0 to 100 scale
Procedure, shortened: as §2

[10] = tested on: velvetleaf; experiment: as above; format: in vivo, Abutilon theophrasti; details: POSTEMERGENCE; for Plant response rating, Velvetleaf: 0 to 100 scale
Procedure, shortened: as §2

[11] = tested on: wild oat; experiment: as above; format: in vivo, Avena fatua; details: POSTEMERGENCE; for Plant response rating, Wild oat: 0 to 100 scale
Procedure, shortened: as §2

[12] = tested on: rice; experiment: Test C flood test plant response rating 0 to 100; format: in vivo, Oryza sativa; details: for Plant response rating Rice Japonica: flood test species listed under POSTEMERGENCE, 0 to 100 scale
Procedure, shortened: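 Compounds in non-phytotoxic solvent applied preemergence to sandy loam one day after planting, postemergence at the 1–4 leaf stage, or to ~2.5 cm floodwater over silt loam.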

[13] = Rate 16 g/ha, under POSTEMERGENCE head (flood test species)

CCOC(=O)COc1cc(-c2nn3c(c2Cl)CCCC3)c(F)cc1Cl [Compound 42]
Plant response rating, Barnyardgrass ([1]; POSTEMERGENCE, Rate 50 g/ha): 5
Plant response rating, Barnyardgrass ([1]; POSTEMERGENCE, Rate 200 g/ha): 8
Plant response rating, Barnyardgrass ([1]; PREEMERGENCE, Rate 50 g/ha): 0
Plant response rating, Barnyardgrass ([1]; Rate 200 g/ha, PREEMERGENCE): 0
Plant response rating, Giant foxtail ([2]; POSTEMERGENCE, Rate 50 g/ha): 3
Plant response rating, Giant foxtail ([2]; PREEMERGENCE, Rate 50 g/ha): 0
Plant response rating, Giant foxtail ([2]; Rate 200 g/ha, POSTEMERGENCE): 4
Plant response rating, Giant foxtail ([2]; Rate 200 g/ha, PREEMERGENCE): 0
Plant response rating, Lambsquarter ([3]; POSTEMERGENCE, Rate 50 g/ha): 9
Plant response rating, Lambsquarter ([3]; PREEMERGENCE, Rate 50 g/ha): 9
Plant response rating, Lambsquarter ([3]; Rate 200 g/ha, POSTEMERGENCE): 10
Plant response rating, Lambsquarter ([3]; Rate 200 g/ha, PREEMERGENCE): 10
Plant response rating, Sugar beet ([4]; POSTEMERGENCE, Rate 50 g/ha): 10
Plant response rating, Sugar beet ([4]; PREEMERGENCE, Rate 50 g/ha): 10
Plant response rating, Sugar beet ([4]; Rate 200 g/ha, POSTEMERGENCE): 10
Plant response rating, Sugar beet ([4]; Rate 200 g/ha, PREEMERGENCE): 10
Plant response rating, Velvetleaf ([5]; POSTEMERGENCE, Rate 50 g/ha): 10
Plant response rating, Velvetleaf ([5]; PREEMERGENCE, Rate 50 g/ha): 0
Plant response rating, Velvetleaf ([5]; Rate 200 g/ha, POSTEMERGENCE): 10
Plant response rating, Velvetleaf ([5]; Rate 200 g/ha, PREEMERGENCE): 6
Plant response rating, Cotton ([6]; 62 g/ha): 100
Plant response rating, Cotton ([6]; 125 g/ha): 100
Plant response rating (0 to 100), Cotton ([6]; Rate 16 g/ha): 100
Plant response rating (0 to 100), Cotton ([6]; Rate 31 g/ha): 100
Plant response rating, Crabgrass ([7]; 62 g/ha): 10
Plant response rating, Crabgrass ([7]; 125 g/ha): 40
Plant response rating (0 to 100), Crabgrass ([7]; Rate 16 g/ha): 10
Plant response rating (0 to 100), Crabgrass ([7]; Rate 31 g/ha): 10
Plant response rating Pigweed ([8]; 62 g/ha): 90
Plant response rating Pigweed ([8]; 125 g/ha): 90
Plant response rating (0 to 100), Pigweed ([8]; Rate 16 g/ha): 90
Plant response rating (0 to 100), Pigweed ([8]; Rate 31 g/ha): 90
Plant response rating, Sorghum ([9]; 62 g/ha): 60
Plant response rating, Sorghum ([9]; 125 g/ha): 70
Plant response rating (0 to 100), Sorghum ([9]; Rate 16 g/ha): 40
Plant response rating (0 to 100), Sorghum ([9]; Rate 31 g/ha): 50
Plant response rating, Velvetleaf ([10]; 62 g/ha): 100
Plant response rating, Velvetleaf ([10]; 125 g/ha): 100
Plant response rating (0 to 100), Velvetleaf ([10]; Rate 16 g/ha): 100
Plant response rating (0 to 100), Velvetleaf ([10]; Rate 31 g/ha): 100
Plant response rating, Wild oat ([11]; 62 g/ha): 30
Plant response rating, Wild oat ([11]; 125 g/ha): 30
Plant response rating (0 to 100), Wild oat ([11]; Rate 16 g/ha): 10
Plant response rating (0 to 100), Wild oat ([11]; Rate 31 g/ha): 10
Plant response rating (0 to 100), Rice Japonica [12, 13]: 0
Plant response rating (0 to 100), Rice Japonica ([12]; Rate 31 g/ha, under POSTEMERGENCE head (flood test species)): 10
Plant response rating Rice Japonica ([12]; 62 g/ha): 20
Plant response rating Rice Japonica ([12]; 125 g/ha): 40

COC(=O)c1cc(-c2nn3c(c2Cl)CCCC3)c(F)cc1Cl [Compound 43]
Plant response rating, Barnyardgrass ([1]; POSTEMERGENCE, Rate 50 g/ha): 7
Plant response rating, Barnyardgrass ([1]; POSTEMERGENCE, Rate 200 g/ha): 9
Plant response rating, Barnyardgrass ([1]; PREEMERGENCE, Rate 50 g/ha): 0
Plant response rating, Barnyardgrass ([1]; Rate 200 g/ha, PREEMERGENCE): 2
Plant response rating, Giant foxtail ([2]; POSTEMERGENCE, Rate 50 g/ha): 5
Plant response rating, Giant foxtail ([2]; PREEMERGENCE, Rate 50 g/ha): 0
Plant response rating, Giant foxtail ([2]; Rate 200 g/ha, POSTEMERGENCE): 6
Plant response rating, Giant foxtail ([2]; Rate 200 g/ha, PREEMERGENCE): 0
Plant response rating, Lambsquarter ([3]; POSTEMERGENCE, Rate 50 g/ha): 8
Plant response rating, Lambsquarter ([3]; PREEMERGENCE, Rate 50 g/ha): 9
Plant response rating, Lambsquarter ([3]; Rate 200 g/ha, POSTEMERGENCE): 10
Plant response rating, Lambsquarter ([3]; Rate 200 g/ha, PREEMERGENCE): 10
Plant response rating, Sugar beet ([4]; POSTEMERGENCE, Rate 50 g/ha): 10
Plant response rating, Sugar beet ([4]; PREEMERGENCE, Rate 50 g/ha): 9
Plant response rating, Sugar beet ([4]; Rate 200 g/ha, POSTEMERGENCE): 10
Plant response rating, Sugar beet ([4]; Rate 200 g/ha, PREEMERGENCE): 10
Plant response rating, Velvetleaf ([5]; POSTEMERGENCE, Rate 50 g/ha): 10
Plant response rating, Velvetleaf ([5]; PREEMERGENCE, Rate 50 g/ha): 5
Plant response rating, Velvetleaf ([5]; Rate 200 g/ha, POSTEMERGENCE): 10
Plant response rating, Velvetleaf ([5]; Rate 200 g/ha, PREEMERGENCE): 10
Plant response rating, Cotton ([6]; 62 g/ha): 100
Plant response rating, Cotton ([6]; 250 g/ha): 100
Plant response rating (0 to 100), Cotton ([6]; Rate 4 g/ha): 90
Plant response rating (0 to 100), Cotton ([6]; Rate 16 g/ha): 90
Plant response rating, Crabgrass ([7]; 62 g/ha): 20
Plant response rating, Crabgrass ([7]; 250 g/ha): 60
Plant response rating (0 to 100), Crabgrass ([7]; Rate 4 g/ha): 10
Plant response rating (0 to 100), Crabgrass ([7]; Rate 16 g/ha): 20
Plant response rating Pigweed ([8]; 62 g/ha): 100
Plant response rating Pigweed ([8]; 250 g/ha): 100
Plant response rating (0 to 100), Pigweed ([8]; Rate 4 g/ha): 90
Plant response rating (0 to 100), Pigweed ([8]; Rate 16 g/ha): 100
Plant response rating, Sorghum ([9]; 62 g/ha): 100
Plant response rating, Sorghum ([9]; 250 g/ha): 100
Plant response rating (0 to 100), Sorghum ([9]; Rate 4 g/ha): 40
Plant response rating (0 to 100), Sorghum ([9]; Rate 16 g/ha): 60
Plant response rating, Velvetleaf ([10]; 62 g/ha): 100
Plant response rating, Velvetleaf ([10]; 250 g/ha): 100
Plant response rating (0 to 100), Velvetleaf ([10]; Rate 4 g/ha): 50
Plant response rating (0 to 100), Velvetleaf ([10]; Rate 16 g/ha): 100
Plant response rating, Wild oat ([11]; 62 g/ha): 50
Plant response rating, Wild oat ([11]; 250 g/ha): 60
Plant response rating (0 to 100), Wild oat ([11]; Rate 4 g/ha): 20
Plant response rating (0 to 100), Wild oat ([11]; Rate 16 g/ha): 40
Plant response rating (0 to 100), Rice Japonica ([12]; POSTEMERGENCE section, flood test, Rate 4 g/ha): 35
Plant response rating (0 to 100), Rice Japonica [12, 13]: 60
Plant response rating Rice Japonica ([12]; 62 g/ha): 70
Plant response rating Rice Japonica ([12]; 250 g/ha): 75
